Reference: US10265294B2, “Compositions and methods for treating epithelial cancer” (YALE UNIVERSITY, priority 2016, dated 2019)

What was measured:
[1] = tested on: OCSCs (CD44+/MyD88+ ovarian cancer stem cells); test: OCSC growth, morphology, RFP+ cell count and Celltox cell death (kinetic live cell imaging); assay type: cell-based, human
Method: (§1) CD44+/MyD88+ ovarian cancer stem cell clones (OCSC1 and OCSC2) and CD44−/MyD88− ovarian cancer cells (OCC1 and OCC2) were isolated from either tumor tissue or ascites obtained from patients diagnosed with stage III/IV serous ovarian cancer and propagated (Alvero, et al., 2009, Cell Cycle 8:158-166; Chefetz, et al., 2013, Cell Cycle 12:511-521). The epithelial nature of the isolated cells was determined by immunostaining for Ck18. Purity of the cultures based on CD44 expression by flow cytometry and chemoresistance were routinely tested. Stable expression of nuclear-restricted red fluorescent (in OCSCs) or green fluorescent proteins (in OCCs) was performed by transduction using NUCLIGHT® Red or Green Lentivirus Reagent (Essen Bioscience, Ann Arbor, Mich.). Spheroids were formed from OCSCs by culturing in ultra-low attachment multi-well plates (Corning, Inc., Corning, N.Y.).
Effect of each compound on cell morphology, growth, and viability was assessed using a kinetic live cell imaging system (Incucyte, Essen Bioscience). Proliferation was calculated as previously described (Alvero, et al., 2011, Mol. Cancer Ther. 10:1385-1393) using metrics from either confluence or fluorescent count from nuclear-restricted RFP or GFP. Cell death was quantified; similarly CELLTOX® Green Cytotoxicity Assay (Promega, Madison, Wis.). IC50 was calculated as described using GraphPad Prism (GraphPad Software Inc., LaJolla, Calif.).
In vitro, conventional chemotherapeutic drugs had negligible effect on OCSC growth even in the μM range (FIG. 1B).
TRX-E-002 exists as a racemic mixture comprised of two enantiomers, enantiomer A (TRX-E-002-1) and enantiomer B (TRX-E-002-2). Thus, the enantiomers were separated and assessed separately. To distinguish between an analog's cytostatic or cytotoxic activity, OCSC clones that are stably transfected with nuclear-restricted RFP were used, which allows an accurate quantification of the number of cells and can be multiplexed with CELLTOX® assay to concomitantly measure the number of dead cells.

OCSC2 spheroids = test: 3D spheroid integrity by kinetic imaging; assay type: cell-based, human; settings: compared to the control; dose-dependent
Method: as §1
Spheroids represent a 3D in vitro tumor model of multiple cell layers that mimic tumors in vivo. In ovarian cancer, spheroid cultures not only mimic ovarian solid tumors, but also ovarian cancer cells found in malignant ascites. Spheroid cultures allow one to test the capacity of compounds to diffuse through multiple layers of cells and induce cell death. It further allows one to test the efficacy of treatment against the mesenchymal cancer subtype. […]

cleaved/active caspase-3 = test: Western blot for cleaved caspase-3 in OCSC transfected with scramble or c-Jun siRNA; assay type: cell-based, human; settings: 2.45 μM for 2 hours then recovery
Method: SDS-PAGE and Western blots were performed using 20 μg of total protein lysate as described in Kamsteeg, et al., 2003, Oncogene 22:2611-2620. Antibodies used were: mouse anti-phospho ERK (Santa Cruz Biotechnology, Inc., Dallas, Tex.); rabbit anti-phospho c-Jun, rabbit anti c-Jun, rabbit anti-ERK, rabbit anti-cleaved caspase 3 all from Cell Signaling Technology, Danvers, Mass.; and mouse anti-GAPDH (Sigma-Aldrich).
To determine the requirement for c-Jun activation in TRX-E-002-1-induced apoptosis, siRNA was used to knock-down c-Jun in chemoresistant OCSC. […] This upregulation was maintained, even when treatment was removed and cells were allowed to recover (FIG. 5C).

[2] = tested on: i.p. tumors of mCherry+OCSC1-F2 ovarian cancer cells; test: Intra-peritoneal ovarian cancer xenograft, primary disease dose response; assay type: in vivo, athymic nude mice
Method: The Yale University Institutional Animal Care and Use Committee approved all in vivo studies described. Intra-peritoneal tumors were established in athymic nude mice using 4×10^6 mCherry+OCSC1-F2 ovarian cancer cells (Craveiro, et al., 2013, Cancer Med. 2:751-762). […] Establishment of i.p. tumors was confirmed by live imaging (In-Vivo FX PRO, Bruker Corp., Billerica, Mass.) prior to treatment. TRX-E-002-1 was prepared in 20% Captisol or Dexsolve and administered daily at 50 mg/kg or 100 mg/kg. Paclitaxel was given at 12 mg/kg q3d and Cisplatin at 5 mg/kg weekly. All treatments were given i.p. Tumor growth was monitored q3d by live imaging and response to treatment was assessed using ROI area.
An intra-peritoneal (i.p.) recurrent ovarian cancer xenograft model established using ovarian cancer cells stably expressing mCherry fluorescence has been established. This allows the detection of i.p. tumors and real-time measurement of response during the course of treatment. This model recapitulates the clinical profile typically seen in patients with ovarian cancer and helps one answer three questions: (1) in vivo activity of TRX-E-002-1 against primary disease; (2) ability of TRX-E-002-1 given in combination with chemotherapy to prevent/delay recurrence; and (3) ability of TRX-E-002-1 given as maintenance after chemotherapy to prevent/delay recurrence.
To determine activity against primary disease as well as to determine the maximum tolerated dose (MTD), a dose response study was performed. […] Animals however recovered from the distension upon cessation of treatment. […] Thus, the MTD was established at daily 100 mg/kg i.p. and this dose was employed for the succeeding studies employing combination treatment.

[3] = tested on: chemoresistant ovarian cancer stem cells; test: OCSC growth and morphology with TRX-E-002-1, AICAR or the combination; assay type: cell-based, human
Method: The effect of each compound on cell growth was assessed using a kinetic live cell imagine system (Incucyte, Essen Bioscience). Proliferation was determined based on either confluence or fluorescent count from nuclear-restricted RFP or GFP. The IC50 values were calculated using GraphPad Prism (GraphPad Software Inc., LaJolla, Calif.). […]

COc1cc(C2COc3c(ccc(O)c3C)C2c2ccc(O)cc2)cc(OC)c1O (single isomer, unassigned) [TRX-E-002-1]
number of nuclear RFP+ cells ([1]; RFP OCSC clones, TRX-E-002-1 beginning at the 0.245 μM dose, TRX-E-002-2 except for the very high dose of 10 μM): significant decrease
number of Celltox-positive cells ([1]; beginning at the 0.245 μM dose): concomitant increase
amount of intact spheroids (OCSC2 spheroids): significantly decreased
cleaved/active caspase-3 (cleaved/active caspase-3; c-Jun knocked-down by siRNA): not detectable
cleaved/active caspase-3 (cleaved/active caspase-3; scramble siRNA): appearance of cleaved/active caspase-3
tumor burden compared to vehicle control ([2]; 50 mg/kg daily i.p., starting at day 14): significant reduction
residual disease at completion of the treatment ([2]; 100 mg/kg daily i.p.): very little residual disease
p-c-Jun and total c-Jun in residual tumors ([2]; 100 mg/kg daily i.p., Western blot): upregulation
tumor burden compared to vehicle control ([2]; 100 mg/kg daily i.p., starting at day 10): significant reduction
tumor burden ([2]; 150 mg/kg i.p. three times weekly, by the 10th dose): significant decrease
cell morphology / apoptotic cells ([3]; 48 hours, AICAR at 0.2 mM): only minimal effect
effect on cell growth ([3]; TRX-E-002-1 25 ng/ml, mono therapies or combination): minimal effect
